According to publication PMC8416018, “Characterization of the ABC methionine transporter from Neisseria meningitidis reveals that lipidated MetQ is required for interaction” (eLife, 2021):

molecular target: T1, NLM-NmMetQ (Neisseria meningitidis, UniProt Q7DD63); assay: […] NMR FAXS competition; type: binding; details: 43 uM protein, 43 uM analog, 2 mM trifluoromethyl methionine reporter, T2 120 ms, 300 K; competitive
T1 construct: gene NMB1946; made as in Nguyen et al. 2019; E. coli BL21(DE3) Gold
T1 sequence (Q7DD63 22-287): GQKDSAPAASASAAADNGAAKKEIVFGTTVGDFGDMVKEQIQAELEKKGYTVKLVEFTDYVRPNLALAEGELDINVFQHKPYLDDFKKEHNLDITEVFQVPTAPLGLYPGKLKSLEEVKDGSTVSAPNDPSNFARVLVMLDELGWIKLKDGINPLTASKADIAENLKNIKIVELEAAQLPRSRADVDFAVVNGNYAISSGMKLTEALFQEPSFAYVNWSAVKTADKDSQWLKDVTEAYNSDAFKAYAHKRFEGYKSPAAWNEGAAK

Row | SMILES | -ln(CPMG/1D)
1 | CCOC(=O)[C@@H](N)CCSC [L-methionine ethyl ester] | L-methionine ethyl ester only partially displaced the reporter molecule
2 | CSCC[C@H](NC(C)=O)C(=O)O [N-acetyl-L-methionine] | Addition of these analogs led to the respective complete or near complete displacement
3 | CCCC[C@H](N)C(=O)O [L-norleucine] | seleno-L-methionine, L-methionine sulfoximine, and L-norleucine were well tolerated
4 | CSCC[C@H](N)C(=O)O [L-methionine] | L-methionine completely displaced the reporter molecule
5 | CCSCC[C@H](N)C(=O)O [L-ethionine] | addition of a methylene group (L-ethionine) was better tolerated
6 | C[Se]CC[C@H](N)C(=O)O [seleno-L-methionine] | seleno-L-methionine, L-methionine sulfoximine, and L-norleucine were well tolerated
7 | CSCC[C@@H](N)C(=O)O [D-methionine] | D-methionine displaced less reporter than L-methionine
8 | CS(=N)(=O)CC[C@H](N)C(=O)O (stereo partly drawn) [L-methionine sulfoximine] | seleno-L-methionine, L-methionine sulfoximine, and L-norleucine were well tolerated
9 | CSCC[C@H](NC=O)C(=O)O [N-formyl-L-methionine] | Addition of these analogs led to the respective complete or near complete displacement

molecular target: T2, lipo-NmMetQ:NmMetNI (methionine site) (Neisseria meningitidis, UniProt Q7DD63); assay: EnzChek phosphate ATPase stimulation; type: biochemical; details: 2 mM ATP, NmMetNI:lipo-NmMetQ:analog 1:8:50 molar ratio, 5 mM MgCl2, pH 7.5, 37 C, 0.05% DDM
T2 construct: gene NMB1946; full-length MetQ, signal cleaved, triacylated at Cys20, C-terminal His10; MetNI with His10 on MetN; DDM-solubilized; E. coli; Methionine ABC transporter permease protein MetI
T2 sequence (Q7DD63 20-287): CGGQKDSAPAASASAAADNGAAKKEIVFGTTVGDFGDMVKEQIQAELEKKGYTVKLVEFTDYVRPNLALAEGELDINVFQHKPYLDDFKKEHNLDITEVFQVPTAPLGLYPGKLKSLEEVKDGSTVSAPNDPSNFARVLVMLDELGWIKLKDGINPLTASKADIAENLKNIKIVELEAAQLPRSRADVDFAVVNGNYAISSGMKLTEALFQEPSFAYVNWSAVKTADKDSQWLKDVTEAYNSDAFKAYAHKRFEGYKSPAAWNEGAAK
T2 sequence (Q9JXP2 1-245 partner): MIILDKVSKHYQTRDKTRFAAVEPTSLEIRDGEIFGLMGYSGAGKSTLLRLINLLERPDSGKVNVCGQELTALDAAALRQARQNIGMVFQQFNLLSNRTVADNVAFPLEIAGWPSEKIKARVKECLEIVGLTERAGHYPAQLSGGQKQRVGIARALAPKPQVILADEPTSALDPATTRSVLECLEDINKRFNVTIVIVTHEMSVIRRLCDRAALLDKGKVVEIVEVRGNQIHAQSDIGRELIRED
T2 sequence (Q9JXP3 1-228 partner): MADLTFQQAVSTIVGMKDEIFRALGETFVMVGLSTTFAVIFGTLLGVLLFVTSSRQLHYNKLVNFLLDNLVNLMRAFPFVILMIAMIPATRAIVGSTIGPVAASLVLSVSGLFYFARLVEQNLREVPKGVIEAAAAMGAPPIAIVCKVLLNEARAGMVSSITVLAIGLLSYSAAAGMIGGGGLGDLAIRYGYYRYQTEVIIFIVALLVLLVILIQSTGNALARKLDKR

Row | SMILES | EnzChek phosphate ATPase stimulation
10 | CSCC[C@H](NC=O)C(=O)O [N-formyl-L-methionine] | methionine analogs led to substrate-stimulated ATPase activity: N-acetyl-L-methionine, N-formyl-L-methionine

molecular target: T1, NLM-NmMetQ; assay: […] NMR CPMG relaxation, direct reporter binding; details: 43 uM protein, 2 mM reporter, T2 120 ms, 300 K

Row | SMILES | -ln(CPMG/1D)
11 | N[C@@H](CCSC(F)(F)F)C(=O)O [Trifluoromethyl-methionine] | reporter molecule plus NLM-NmMetQ has a high -ln(CPMG/1D) ratio
